IC50 data for 27 compounds are collected here from patent US9403830B2, “Inhibitors of leukotriene production” (Boehringer Ingelheim International GmbH, priority 2012, dated 2016).

Usually IC50 stands for the midpoint of a concentration-inhibition curve.

Assay [1] addresses T1, human LTA4 hydrolase (Homo sapiens, UniProt P09960).
T1 sequence (P09960 1-611): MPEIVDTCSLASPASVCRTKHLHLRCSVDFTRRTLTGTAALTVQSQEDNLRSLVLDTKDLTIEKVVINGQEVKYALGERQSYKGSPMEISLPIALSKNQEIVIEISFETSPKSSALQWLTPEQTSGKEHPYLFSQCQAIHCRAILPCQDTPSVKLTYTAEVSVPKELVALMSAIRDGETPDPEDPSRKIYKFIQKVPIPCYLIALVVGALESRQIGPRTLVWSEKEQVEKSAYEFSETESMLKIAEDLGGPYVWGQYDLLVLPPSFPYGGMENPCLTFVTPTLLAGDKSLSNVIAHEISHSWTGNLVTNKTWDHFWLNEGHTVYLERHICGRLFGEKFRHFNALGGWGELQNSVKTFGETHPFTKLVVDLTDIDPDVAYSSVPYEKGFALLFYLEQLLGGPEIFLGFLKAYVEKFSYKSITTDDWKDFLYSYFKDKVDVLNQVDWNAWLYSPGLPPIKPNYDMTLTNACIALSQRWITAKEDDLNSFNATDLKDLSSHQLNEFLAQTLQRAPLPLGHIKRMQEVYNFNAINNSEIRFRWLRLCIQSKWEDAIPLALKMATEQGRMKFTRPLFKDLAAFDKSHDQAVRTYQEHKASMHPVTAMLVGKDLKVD
The experiment in a line: LTA4H Enzyme assay (peptidase, Arg-AMC cleavage). The format is biochemical. The conditions noted are these: LTA4H enzyme 1 nM, Arg-AMC substrate 50 μM, room temperature 1 h, fluorescence 380/460 nm. A digest of the protocol:
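Human LTA4H (1 nM final) incubated with compound and Arg-AMC (50 μM final) in 50 mM Tris-HCl pH 7.5, 100 mM KCl, 0.5% BSA, 1 h at room temperature. Product read as AMC fluorescence (ex 380/em 460 nm); IC50 reported.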

For assay [2], the system named is LTB4 synthesis in human whole blood. The experiment in a line: human whole blood (HWB) assay, inhibition of LTB4 production. It is filed as cell-based. The conditions noted are these: heparinized human whole blood, calcimycin 20 μM stimulation, plasma LTB4. A digest of the protocol:
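Plasma LTB4, quantified by HTRF immunoassay, is the read-out after calcimycin challenge (20 μM final, 30 min, 37 °C) of heparinized whole blood that had been pretreated with compound for 15 min at 37 °C; values given as IC50.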

Turning to `c1cc(-c2ccc(Oc3ccc4[nH]c(CN5CCCC5)nc4c3)cc2)[nH]n1` [Example 52, 5-[4-(2H-Pyrazol-3-yl)-phenoxy]-2-pyrrolidin-1-ylmethyl-1H-benzoimidazole], the figures for the half-maximal inhibitory concentration (IC50) in assay [1] and in assay [2] were 0.12 nM and 66 nM, respectively.
For `O=C1COCCN1C1CCN(Cc2ccc3cc(Oc4ccc(-c5ccn[nH]5)cn4)ccc3n2)CC1` [Example 211, 4-(1-{6-[5-(2H-Pyrazol-3-yl)-pyridin-2-yloxy]-quinolin-2-ylmethyl}-piperidin-4-yl)-morpholin-3-one] the same measures were 0.8 nM and 230 nM.
With `O=C(N1CCN(Cc2ccc3cc(Oc4ccc(-c5ccn[nH]5)cc4)ccc3n2)CC1)C1(O)CC1` [Example 15, (1-hydroxy-cyclopropyl)-(4-{6-[4-(2H-pyrazol-3-yl)-phenoxy]-quinolin-2-ylmethyl}-piperazin-1-yl)-methanone], the IC50 in assay [1] is 2.4 nM; in assay [2] it was 810 nM.
Regarding `c1cc(-c2ccc(Oc3ccc4nc(CN5CCC5)ccc4c3)cc2)[nH]n1` [Example 244, 2-Azetidin-1-ylmethyl-6-[4-(2H-pyrazol-3-yl)-phenoxy]-quinoline], the IC50 stood at 0.048 nM in assay [1] and 120 nM in assay [2].
Consider `CC(=O)N[C@@H]1C[C@H]2CC[C@@H](C1)N2CC1Cc2ccc(Oc3ccc(-c4ccn[nH]4)cc3)cc2O1` (stereo partly drawn) [Example 142, N-((exo)-8-{6-[4-(2H-Pyrazol-3-yl)-phenoxy]-2,3-dihydro-benzofuran-2-ylmethyl}-8-aza-bicyclo[3.2.1]oct-3-yl)-acetamide], for which the half-maximal inhibitory concentration (IC50) in assay [1] worked out at 0.25 nM; in assay [2] it was 210 nM.
On the same counts, the results for `CC(=O)N1CCN(Cc2cc3cc(Oc4ccc(-c5ccn[nH]5)cn4)ccc3[nH]2)CC1` [Example 222, 1-(4-{5-[5-(2H-Pyrazol-3-yl)-pyridin-2-yloxy]-1H-indol-2-ylmethyl}-piperazin-1-yl)-ethanone] are 0.73 nM and 230 nM.
For `C[C@H]1COCCN1Cc1nc2cc(Oc3ccc(-c4ccn[nH]4)cc3)ccc2[nH]1` [Example 62, 2-((S)-3-Methyl-morpholin-4-ylmethyl)-5-[4-(2H-pyrazol-3-yl)-phenoxy]-1H-benzoimidazole] the same measures were 0.13 nM and 150 nM.
For `CC(=O)N[C@@H]1C[C@H]2CC[C@@H](C1)N2Cc1ccc2cc(Oc3ccc(-c4ccn[nH]4)cc3)ccc2n1` [Example 248, N-((exo)-8-{6-[4-(2H-Pyrazol-3-yl)-phenoxy]-quinolin-2-ylmethyl}-8-aza-bicyclo[3.2.1]oct-3-yl)-acetamide], the IC50 was 0.083 nM in assay [1] and 200 nM in assay [2].
Consider `CC(=O)N1CC2CCC1CN2Cc1ccc2cc(Oc3ccc(-c4ccn[nH]4)cn3)ccc2n1` (stereo not drawn) [Example 148, 1-(5-{6-[5-(2H-Pyrazol-3-yl)-pyridin-2-yloxy]-quinolin-2-ylmethyl}-2,5-diaza-bicyclo[2.2.2]oct-2-yl)-ethanone], for which the IC50 in assay [1] stood at 0.46 nM; in assay [2] it was 150 nM.
For `c1cc(-c2ccc(Oc3ccc4cc(CN5CCCC5)oc4c3)nc2)[nH]n1` [Example 127, 5-(2H-Pyrazol-3-yl)-2-(2-pyrrolidin-1-ylmethyl-benzofuran-6-yloxy)-pyridine], the IC50 in assay [1] was found to be 0.68 nM; in assay [2], 130 nM.
`COCCNCc1nc2cc(Oc3ccc(-c4ccn[nH]4)cc3)ccc2[nH]1` [Example 91, (2-Methoxy-ethyl)-{5-[4-(2H-pyrazol-3-yl)-phenoxy]-1H-benzoimidazol-2-ylmethyl}-amine]: the 50% inhibitory concentration (IC50) was determined as 0.21 nM in assay [1] and 140 nM in assay [2].
As for `N#CCC1CCN(Cc2ccc3cc(Oc4ccc(-c5ccn[nH]5)cn4)ccc3n2)CC1` [Example 96, (1-{6-[5-(2H-Pyrazol-3-yl)-pyridin-2-yloxy]-quinolin-2-ylmethyl}-piperidin-4-yl)-acetonitrile], the IC50 worked out at 0.79 nM in assay [1] and 160 nM in assay [2].
As for `c1cc(-c2ccc(Oc3ccc4[nH]c(CN5CCCOCC5)nc4c3)cc2)[nH]n1` [Example 175, 2-[1,4]Oxazepan-4-ylmethyl-5-[4-(2H-pyrazol-3-yl)-phenoxy]-1H-benzoimidazole], the IC50 in assay [1] worked out at 0.17 nM; in assay [2], 140 nM.
On the same counts, the results for `CC(=O)NC1CCN(CCc2coc3cc(Oc4ccc(-c5ccn[nH]5)cn4)ccc23)CC1` [Example 133, N-[1-(2-{6-[5-(2H-Pyrazol-3-yl)-pyridin-2-yloxy]-benzofuran-3-yl}-ethyl)-piperidin-4-yl]-acetamide] are 0.35 nM and 150 nM.
Consider `COC1CCN(Cc2nc3cc(Oc4ccc(-c5ccn[nH]5)cc4)ccc3[nH]2)CC1` [Example 228, 2-(4-Methoxy-piperidin-1-ylmethyl)-5-[4-(2H-pyrazol-3-yl)-phenoxy]-1H-benzoimidazole], for which the half-inhibitory concentration (IC50) in assay [1] stood at 0.16 nM; in assay [2], 180 nM.
As for `CC(C)(O)CNC(=O)[C@H]1[C@@H]2CN(Cc3ccc4cc(Oc5ccc(-c6ccn[nH]6)cn5)ccc4n3)C[C@@H]21` [Example 40, (1α,5α,6α)-3-{6-[5-(2H-Pyrazol-3-yl)-pyridin-2-yloxy]-quinolin-2-ylmethyl}-3-aza-bicyclo[3.1.0]hexane-6-carboxylic acid (2-hydroxy-2-methyl-propyl)-amide], the concentration for half-maximal inhibition (IC50) in assay [1] came out at 0.47 nM; in assay [2] it was 300 nM.
For `OC1CCN(Cc2ccc3cc(Oc4ccc(-c5ccn[nH]5)cn4)ccc3c2)CC1` [Example 4, 1-{6-[5-(2H-Pyrazol-3-yl)-pyridin-2-yloxy]-naphthalen-2-ylmethyl}-piperidin-4-ol] the same measures were 0.54 nM and 190 nM.
Regarding `CO[C@@H]1CCN(Cc2ccc3cc(Oc4ccc(-c5ccn[nH]5)cn4)ccc3n2)C1` [Example 205, 2-((R)-3-Methoxy-pyrrolidin-1-ylmethyl)-6-[5-(2H-pyrazol-3-yl)-pyridin-2-yloxy]-quinoline], the IC50 in assay [1] turned out to be 1.2 nM; in assay [2], 210 nM.
For `COCC1CCN(Cc2nc3cc(Oc4ccc(-c5ccn[nH]5)cc4)ccc3[nH]2)C1` (stereo not drawn) [Example 166, 2-(3-Methoxymethyl-pyrrolidin-1-ylmethyl)-5-[4-(2H-pyrazol-3-yl)-phenoxy]-1H-benzoimidazole] the same measures were 0.21 nM and 120 nM.
Take `NC(=O)N1CCN(Cc2ccc3cc(Oc4ccc(-c5ccn[nH]5)cn4)ccc3n2)CC1` [Example 43, 4-{6-[5-(2H-Pyrazol-3-yl)-pyridin-2-yloxy]-quinolin-2-ylmethyl}-piperazine-1-carboxylic acid amide]: the 50% inhibitory concentration (IC50) amounted to 3.9 nM in assay [1] and 380 nM in assay [2].
Take `Cc1noc(C2CCN(Cc3nc4cc(Oc5ccc(-c6ccn[nH]6)cc5)ccc4[nH]3)CC2)n1` [Example 65, 2-[4-(3-Methyl-[1,2,4]oxadiazol-5-yl)-piperidin-1-ylmethyl]-5-[4-(2H-pyrazol-3-yl)-phenoxy]-1H-benzoimidazole]: the 50% inhibitory concentration (IC50) was 0.15 nM in assay [1] and 180 nM in assay [2].
In the case of `c1cc(-c2ccc(Oc3ccc4cc(CN5CCCC5)ccc4c3)nc2)[nH]n1` [Example 3, 5-(2H-Pyrazol-3-yl)-2-(6-pyrrolidin-1-ylmethyl-naphthalen-2-yloxy)-pyridine], the IC50 in assay [1] came out at 0.34 nM; in assay [2], 120 nM.
On the same counts, the results for `C[C@H]1CCCCN1Cc1nc2cc(Oc3ccc(-c4ccn[nH]4)cc3)ccc2[nH]1` [Example 171, 2-((S)-2-Methyl-piperidin-1-ylmethyl)-5-[4-(2H-pyrazol-3-yl)-phenoxy]-1H-benzoimidazole] are 0.11 nM and 130 nM.
For `CC(=O)N1CCN(CCc2ccc3cc(Oc4ccc(-c5ccn[nH]5)cn4)ccc3n2)CC1` [Example 108, 1-[4-(2-{6-[5-(2H-pyrazol-3-yl)-pyridin-2-yloxy]-quinolin-2-yl}-ethyl)-piperazin-1-yl]-ethanone], the IC50 in assay [1] is 0.54 nM; in assay [2], 230 nM.
Consider `c1cc(-c2ccc(Oc3ccc4nc(CN5CCCC5)cn4c3)cc2)[nH]n1` [Example 246, 6-[4-(2H-Pyrazol-3-yl)-phenoxy]-2-pyrrolidin-1-ylmethyl-imidazo[1,2-a]pyridine], for which the 50% inhibitory concentration (IC50) in assay [1] was 0.17 nM; in assay [2], 180 nM.
On the same counts, the results for `CCNCc1nc2cc(Oc3ccc(-c4ccn[nH]4)cc3)ccc2[nH]1` [Example 191, Ethyl-{5-[4-(2H-pyrazol-3-yl)-phenoxy]-1H-benzoimidazol-2-ylmethyl}-amine] are 0.18 nM and 170 nM.
Regarding `O=C1OCCN1C1CCN(Cc2ccc3cc(Oc4ccc(-c5ccn[nH]5)cn4)ccc3n2)CC1` [Example 11, 3-(1-{6-[5-(2H-pyrazol-3-yl)-pyridin-2-yloxy]-quinolin-2-ylmethyl}-piperidin-4-yl)-oxazolidin-2-one], the IC50 stood at 0.65 nM in assay [1] and 180 nM in assay [2].
